Molecules are shown by their SMILES.

Results on 1 compound are retold here after patent publication US20230212584A1, “MEDICAMENT USED FOR TREATING CHOLANGIOCARCINOMA WITH KRAS MUTATIONS” (GENOMICARE BIOTECHNOLOGY (SHANGHAI) CO., LTD., priority 2022, published 2023).

The test system of assay [1] is KRAS-mutated cholangiocarcinoma cell line OZ. The assay can be described thus: Cell viability assay, CellTiter-Glo (CTG) method, OZ. The assay is classed as cell-based. The conditions noted are these: 1 μM Fulvestrant; 1 nM Estradiol; 168 hours; inhibition rate increased with concentration; FIG. 4. As for the experimental part: (§1) Fulvestrant was assayed for its anti-cholangiocarcinoma activity using the CTG method. The cell lines used were KRAS-mutated cholangiocarcinoma cell lines HUCCT1 and OZ, as well as KRAS wild-type cholangiocarcinoma cell line HCCC-9810. The efficacy of treatment by a medicament for cholangiocarcinoma was determined by comparing the difference in growth between KRAS-mutant-type group and wild-type group after treatment by a medicament. The specific steps were as follows:
(§2) 1) Different experimental cell lines were sub-cultured into 96-well plates. 100 μL of PBS was added around the 96-well plates as a blank, where the cholangiocarcinoma cell lines used were HUCCT, OZ and HCCC-9810. The cells in the 96-well plates were cultured overnight at 37° C., 5% CO2 and 95% humidity.
(§3) 2) The cell culture medium in the 96-well plate was discarded and 100 μL of phenol red-free RPMI1640 culture medium containing 5% Charcoal Stripped FBS was added.
(§4) 3) The cells in the 96-well plate with the changed medium were cultured at 37° C., 5% CO2, 95% humidity for another 48 hours. […]
(§5) 9) On the 11th day of the culture, CellTiter-Glo® reagent and medicament-treated cell culture plates were placed at room temperature for 30 minutes to equilibrate. […] Chemiluminescence values were read with EnVision®. […]

Assay [2] relates to KRAS-mutated cholangiocarcinoma cell line HUCCT1. The assay can be described thus: Cell viability assay, CellTiter-Glo (CTG) method, HUCCT1. The assay is classed as cell-based. The conditions noted are these: concentration higher than 2.5 μM; 1 nM Estradiol; 168 hours; lower inhibition rate than OZ; FIG. 4. How it is done: as §1, §2, §3, §4, §5

For `C[C@]12CC[C@@H]3c4ccc(O)cc4C[C@@H](CCCCCCCCC[S+]([O-])CCCC(F)(F)C(F)(F)F)[C@H]3[C@@H]1CC[C@@H]2O` (some centres unmarked) [Fulvestrant], the “growth inhibition of OZ” value in assay [1] is listed as “significant growth inhibition”. The “growth inhibition of HuCCT1” value in assay [2] is reported as “significantly inhibited”.
